Common to all, as to assay type: cell-based, human
In test [1] the test system is Lin^−/CD34^+/CD38^−/CD123^+ cancer stem cells in KG1a cells. The test is described as follows: Immunophenotypic quantification of the leukaemic stem cell compartment in KG1a cells. The settings on record: for proportion of cancer stem cells as compared to non-stem cancer cells after treatment: 72 h; for selectivity for cancer stem cells as opposed to non-stem cancer cells (summary): summary statement of the description. The protocol:
The respective abilities of NUC-1031 and gemcitabine to target CSCs were investigated in the AML cell line KG1a.
KG1a cells were cultured for 72 hours in the presence of a wide range of concentrations of each nucleoside analogue and their respective ProTides. Cells were then harvested and labelled with a cocktail of anti-lineage antibodies (PE-cy7), anti-CD34 (FITC), anti-CD38 (PE) and anti-CD123 (PERCP cy5). The sub-population expressing a leukaemic stem cell (LSC) phenotype were subsequently identified and were expressed as a percentage of all viable cells left in the culture. The percentages of stem cells remaining were then plotted on a dose-response graph and the proportion of cancer stem cells was compared across the various concentrations of ProTides and their respective parent compounds, in order to determine if they preferentially target cancer stem cells.
(§1) The data obtained in these experiments were evaluated using one way ANOVA. All data was confirmed as Gaussian or a Gaussian approximation using the omnibus K2 test. LD50 values were calculated from the non-linear regression and line of best-fit analysis of the sigmoidal dose-response curves. All statistical analyses were performed using Graphpad Prism 6.0 software (Graphpad Software Inc., San Diego, Calif.).

Another test has as its system KG1a cells. The test is described as follows: In vitro apoptosis / LD50 assay (Annexin V) in KG1a cells. The conditions noted are these: for LD50: KG1a cells (FIG. 7A), 72 h. As for the experimental part: The acute myeloid leukaemia (AML) KG1a cell line was maintained in RPMI medium (Invitrogen, Paisley, UK) supplemented with 100 units/ml penicillin, 100 μg/ml streptomycin and 20% fetal calf serum. Cells were subsequently aliquoted (10^5 cells/100 μl) into 96-well plates and were incubated at 37° C. in a humidified 5% carbon dioxide atmosphere for 72 h in the presence of NUC-1031 or gemcitabine at concentrations that were experimentally determined for each compound. In addition, control cultures were carried out to which no drug was added. Cells were subsequently harvested by centrifugation and were analysed by flow cytometry using the Annexin V assay.
Cultured cells were harvested by centrifugation and then resuspended in 195 μl of calcium-rich buffer. Subsequently, 5 μl of Annexin V (Caltag Medsystems, Botolph Claydon, UK) was added to the cell suspension and cells were incubated in the dark for 10 mins prior to washing. Cells were finally resuspended in 190 μl of calcium-rich buffer together with 10 μl of propidium iodide. Apoptosis was assessed by dual-colour immunofluorescent flow cytometry as described previously. Subsequently LD50 values (the dose required to kill 50% of the cells in a culture) were calculated for each nucleoside analogue and ProTide.
as §1

The test system of test [2] is primary acute myeloid leukaemia (AML) blasts. The test is described as follows: In vitro cytotoxicity assay (LD50) in primary acute myeloid leukaemia cells. The conditions noted are these: for LD50: primary AML blasts, 48 h, concentration required to kill 50% of the tumour cells in culture; for potency as compared to the respective parent compound (summary): summary statement of the description. As for the experimental part:
ProTide compounds, as defined herein, and the comparator ProTide compound NUC-1031 were assayed for their cytotoxic effects on primary cultures of acute myeloid leukaemia (AML) blasts. LD50 values (the concentration required to kill 50% of the tumour cells in culture) were calculated in respect of the ProTide compounds of the invention, and the parent compounds from which they are derived. […] The LD50 values of the ProTide compounds as defined herein (and their parent compounds) were compared with the comparator ProTide NUC-1031 and its parent compound gemcitabine.
Bone marrow samples were collected in ethylenediaminetetraacetic acid (EDTA) from newly diagnosed, previously untreated, acute myeloid leukaemia (AML) patients. AML blasts were enriched by density gradient centrifugation using Histopaque (Sigma, Poole, UK) and were subsequently maintained in Roswell Park Memorial Institute medium (RPMI) supplemented with 10% foetal bovine serum (FBS). Cells were treated with ProTide compounds (either as encompassed by the present invention, or the comparator ProTide NUC-1031) or with the ProTides' parent compounds at a range of experimental concentrations, and incubated for 48 h. All cultures were maintained at 37° C. in a 5% CO2 humidified atmosphere.
Cells were harvested and labelled with CD34-fluorescein isothiocyanate (FITC) (BD Biosciences, Buckingham, UK) and then resuspended in 200 μl of binding buffer containing 4 μl of annexin V labelled with allophycocyanin (APC) (eBioscience Ltd, Hatfield, UK). Apoptosis was quantified in the CD34^+ AML cells using an Accuri C6 flow cytometer (Becton Dickinson, CA, USA). At least 10,000 events were acquired and data were subsequently analysed using FlowJo software (Tree Star Inc., Ashland, Oreg., USA). All LD50 values (concentration of drug required to kill 50% of cells) were derived from the dose-response curves.

“Also recorded” adds a separate entry of the source.

Consider `O=c1[nH]c(=O)n([C@H]2C[C@H](O)[C@@H](CO)O2)cc1F` [FUDR], for which the “proportion of cancer stem cells as compared to non-stem cancer cells after treatment” value in test [1] (KG1a cells) was “reduction in the proportion of cancer stem cells”. Besides, the LD50 is 1.18 µM in the test with KG1a cells and “FUDR 1.18 μM” in test [2].

In the case of `C[C@H](NP(=O)(OC[C@H]1O[C@@H](n2cc(F)c(=O)[nH]c2=O)CC1O)Oc1ccccc1)C(=O)OCc1ccccc1` (stereo partly shown) [CPF-381], in test [1] (KG1a cells), the “low concentration at which the selective reduction of cancer stem cells was still observed” value is recorded as “approximately 8×10^−8 M” and the “proportion of cancer stem cells as compared to non-stem cancer cells after treatment” value is “reduction in the proportion of cancer stem cells”. Moreover, the “selectivity for cancer stem cells as opposed to non-stem cancer cells (summary)” value (from here on “selectivity … to non-stem cancer cells (summary)”) in test [1] was “selectively target for cancer stem cells; also recorded: high selectivity for cancer stem cells”. Moreover, in test [2], the LD50 result is listed as “CPF 381 0.039 μM” and the “potency as compared to the respective parent compound (summary)” value is recorded as “greater potency”.

On to `C[C@H](NP(=O)(OC[C@H]1O[C@@H](n2cc(F)c(=O)[nH]c2=O)CC1O)Oc1cccc2ccccc12)C(=O)OCc1ccccc1` (single isomer, unassigned) [CPF-373 (Iso B)], for which, in test [1] (KG1a cells), the “low concentration at which the selective reduction of cancer stem cells was still observed” value is listed as “approximately 8×10^−8 M” and the “proportion of cancer stem cells as compared to non-stem cancer cells after treatment” value is listed as “reduction in the proportion of cancer stem cells”. Besides, the “selectivity … to non-stem cancer cells (summary)” value in test [1] is “selectively target for cancer stem cells; also recorded: high selectivity for cancer stem cells”. Besides, in test [2], the LD50 entry is reported as “CPF 373 (Iso B) 0.055 μM” and the “potency as compared to the respective parent compound (summary)” value was “greater potency”.

Take `CCCCCOC(=O)[C@H](C)NP(=O)(OC[C@H]1O[C@@H](n2cc(F)c(=O)[nH]c2=O)CC1O)Oc1cccc2ccccc12` (stereo partly shown) [CPF-581]: in test [1] (KG1a cells), the “low concentration at which the selective reduction of cancer stem cells was still observed” value is on record as “approximately 8×10^−8 M” and the “proportion of cancer stem cells as compared to non-stem cancer cells after treatment” value is recorded as “reduction in the proportion of cancer stem cells”. Moreover, the “selectivity … to non-stem cancer cells (summary)” value in test [1] is recorded as “selectively target for cancer stem cells; also recorded: high selectivity for cancer stem cells”. The same compound returned an LD50 in the test on KG1a cells of 0.027 µM. Further, the “potency relative to FUDR (times more potent)” value in the test on KG1a cells (from LD50 values) is on record as “over 50 times”. Besides, in test [2], the LD50 result is “CPF 581 0.027 μM” and the “potency as compared to the respective parent compound (summary)” value is “greater potency”.

For the compound `C[C@H](NP(=O)(OC[C@H]1O[C@@H](n2cnc3c(=S)[nH]c(N)nc32)[C@@H](O)C1O)Oc1ccccc1)C(=O)OCc1ccccc1` (stereo partly shown) [CPF-782], in test [1] (KG1a cells), the “selectivity against cancer stem cells compared to the parent compound” value was “most selective; also recorded: statistically significant increases in selectivity at certain concentrations” and the “proportion of cancer stem cells as compared to non-stem cancer cells after treatment” value is on record as “strong reduction in the proportion of cancer stem cells”. The “selectivity … to non-stem cancer cells (summary)” value in test [1] is listed as “selectively target for cancer stem cells; also recorded: high selectivity for cancer stem cells”. Further, in test [2], the LD50 entry was “CPF 782 0.82 μM” and the “potency as compared to the respective parent compound (summary)” value is “greater potency”.

These data come from patent publication US11400107B2, “Cancer treatments” (NuCana plc, priority 2016, dated 2022).
